From publication PMC8915600, “Optimization of experimental conditions for skin-PAMPA measurements” (ADMET & DMPK, 2020)
Read-outs that look alike come from different tables or passages of the source. Marks after values point to notes of the source that are not given here.

Key:
[1] = set-up: method as in earlier work; conditions: octanol-water partition coefficient; cited from earlier work
[2] = cited from earlier work
[3] = cited from earlier work; remark: listed apart in the source
[4] = skin-PAMPA permeability assay (gradient-pH, UPLC-DAD); conditions: for Papp at 4 h, 50 μM / Papp at 24 h, 50 μM / Papp at 30 min, 50 μM: PAMPA
[5] = PAMPA
[6] = skin-PAMPA membrane stability after pre-treatment at basic pH; conditions: membrane soaked at pH 7, 8, 9, 10 for 30 min or 4 h; then assay 4 h with stirring, donor pH 5, acceptor pH 7.4; versus untreated membrane
Experimental: Then, a standard permeation assay was carried out with an incubation time of 4 h and stirring at pH 5 in the donor compartment and pH 7.4 in the acceptor compartment. Simultaneously, permeation assays were also performed without the previous soaking treatment at basic pH.

in vitro = conditions: PAMPA, pH 7.4, log Pe
[7] = logarithm of human skin permeation coefficient, neutral form, corrected for ionization in water and for temperature at 37 °C
[8] = log Pe, with stirring, 4 h incubation, neutral form (donor pH 3.0, aminopyrine pH 7.0), acceptor pH 7.4, 32 °C
[9] = log Pe, with stirring, 24 h incubation, neutral form (donor pH 3.0, aminopyrine pH 7.0), acceptor pH 7.4, 32 °C
[10] = log Pe, without stirring, 4 h incubation, neutral form (donor pH 3.0, aminopyrine pH 7.0), acceptor pH 7.4, 32 °C
[11] = log Pe, without stirring, 24 h incubation, neutral form (donor pH 3.0, aminopyrine pH 7.0), acceptor pH 7.4, 32 °C
[12] = mole fraction, with stirring, 30 min incubation, neutral form
[13] = mole fraction, with stirring, 4 h incubation, neutral form
[14] = mole fraction, with stirring, 24 h incubation, neutral form
[15] = mole fraction, without stirring, 30 min incubation, neutral form
[16] = mole fraction, without stirring, 4 h incubation, neutral form
[17] = mole fraction, without stirring, 24 h incubation, neutral form
[18] = optimized assay conditions (4 h incubation, stirring), measured at the pH corresponding to the neutral form, acceptor pH 7.4
[19] = without stirring, 4 h incubation, neutral form (donor pH 3.0, aminopyrine pH 7.0), acceptor pH 7.4, 32 °C
[20] = pH 7.4, log Pe, optimized assay conditions (4 h incubation, stirring), measured at the pH corresponding to the neutral form, acceptor pH 7.4
[21] = log Pe, without stirring, 30 min incubation, neutral form (donor pH 3.0, aminopyrine pH 7.0), acceptor pH 7.4, 32 °C
[22] = with stirring, 30 min incubation, neutral form (donor pH 3.0, aminopyrine pH 7.0), acceptor pH 7.4, 32 °C

Structure (SMILES): O=c1[nH]cc(F)c(=O)[nH]1 [5-Fluorouracil]
- log Po/w [1]: -0.89
- pKa [2]: 7.86 ^a
- log Kp [3, 7]: -6.82 cm/s
- Papp at 4 h, 50 μM [4, 8]: 17 nm/s
- Papp at 24 h, 50 μM [4, 9]: 6.92 nm/s
- Papp at 4 h, 50 μM [4, 10]: 3.39 nm/s
- Papp at 24 h, 50 μM [4, 11]: 8.51 nm/s
- RM (membrane retention) [4, 12]: 0.00
- RM (membrane retention) [4, 13]: 0.04(±0.04)
- RM (membrane retention) [4, 14]: 0.08(±0.03)
- RM (membrane retention) [4, 15]: 0.00
- RM (membrane retention) [4, 16]: 0.01(±0.03)
- RM (membrane retention) [4, 17]: 0.05(±0.02)
- log Pe [4, 18]: -5.77±0.02 cm/s
- log Pe [4, 19]: -6.47 cm/s

Structure (SMILES): C[C@]12CCC(=O)C=C1CC[C@@H]1[C@@H]2CC[C@@]2(C)[C@H]1CC[C@]2(O)C(=O)CO [Cortexolone]
- log Kp [3, 7]: -7.20 cm/s
- Papp at 4 h, 50 μM [4, 20]: 35.5 nm/s

Structure (SMILES): CCc1ccc(O)cc1 [4-Ethylphenol]
- log Kp [3, 7]: -4.53 cm/s
- Papp at 4 h, 50 μM [4, 20]: 646 nm/s

Structure (SMILES): C[C@H]1O[C@@H](O[C@H]2[C@@H](O)C[C@H](O[C@H]3[C@@H](O)C[C@H](O[C@H]4CC[C@@]5(C)[C@H](CC[C@@H]6[C@@H]5CC[C@]5(C)[C@@H](C7=CC(=O)OC7)CC[C@]65O)C4)O[C@@H]3C)O[C@@H]2C)C[C@H](O)[C@@H]1O [Digitoxin]
- log Pe [5]: -6.34(±0.13) cm/s
- log Kp [3, 7]: -8.15 cm/s
- RM (membrane retention) [4, 12]: 0.00
- RM (membrane retention) [4, 13]: 0.22(±0.04)
- RM (membrane retention) [4, 14]: 0.29(±0.05)
- RM (membrane retention) [4, 15]: 0.00
- RM (membrane retention) [4, 16]: 0.09(±0.03)
- RM (membrane retention) [4, 17]: 0.25(±0.02)

Structure (SMILES): C[C@]12CC[C@@H]3c4ccc(O)cc4CC[C@H]3[C@@H]1CC[C@@H]2O [Estradiol]
- log Kp [3, 7]: -5.61 cm/s

Structure (SMILES): CN1C(C(=O)Nc2ccccn2)=C(O)c2ccccc2S1(=O)=O [Piroxicam]
- log Kp [3, 7]: -6.02 cm/s
- Papp at 4 h, 50 μM [4, 20]: 214 nm/s

Structure (SMILES): c1ccc2cnccc2c1 [Isoquinoline]
- log Kp [3, 7]: -5.11 cm/s
- Papp at 4 h, 50 μM [4, 20]: 631 nm/s

Structure (SMILES): OCc1ccc(O)cc1 [4-Hydroxybenzyl alcohol]
- log Kp [3, 7]: -6.26 cm/s
- Papp at 4 h, 50 μM [4, 20]: 14.1 nm/s

Structure (SMILES): COc1ccc2c(c1)c(CC(=O)O)c(C)n2C(=O)c1ccc(Cl)cc1 [Indomethacine]
- log Kp [3, 7]: -5.39 cm/s
- Papp at 4 h, 50 μM [4, 20]: 398 nm/s
- change of skin-PAMPA log Pe after membrane treatment at basic pH [6]: remain constant

Structure (SMILES): Oc1ccc(Cl)cc1Cl [2,4-Dichlorophenol]
- Papp at 4 h, 50 μM (in vitro): 1200 nm/s
- log Kp [3, 7]: -4.30 cm/s

Structure (SMILES): O=C(OCc1ccccc1)c1cccnc1 [Benzyl nicotinate]
- log Kp [3, 7]: -4.87 cm/s
- Papp at 4 h, 50 μM [4, 20]: 692 nm/s

Structure (SMILES): Nc1ccccc1 [Aniline]
- Papp (in vitro): 282 nm/s
- log Kp ([3]; human): -4.94 cm/s

Structure (SMILES): CC(=O)[C@H]1CC[C@H]2[C@@H]3CCC4=CC(=O)CC[C@]4(C)[C@H]3CC[C@]12C [Progesterone]
- log Kp [3, 7]: -4.90 cm/s
- Papp at 4 h, 50 μM [4, 8]: 776 nm/s
- Papp at 24 h, 50 μM [4, 9]: 257 nm/s
- Papp at 30 min, 50 μM [4, 21]: 155 nm/s
- Papp at 4 h, 50 μM [4, 10]: 132 nm/s
- Papp at 24 h, 50 μM [4, 11]: 204 nm/s
- Papp at 4 h, 50 μM [4, 20]: 741 nm/s
- RM (membrane retention) [4, 12]: 0.50(±0.04)
- RM (membrane retention) [4, 13]: 0.74(±0.01)
- RM (membrane retention) [4, 14]: 0.88(±0.01)
- RM (membrane retention) [4, 15]: 0.33(±0.01)
- RM (membrane retention) [4, 16]: 0.62(±0.04)
- RM (membrane retention) [4, 17]: 0.83(±0.02)
- RM (membrane retention) ([4]; range over all incubation times (30 min, 4 h, 24 h), with and without stirring): 0.33-0.88
- log Pe [4, 22]: -3.25(±0.25) cm/s
- log Pe [4, 19]: -4.88 cm/s

Structure (SMILES): CC(=O)CC(c1ccccc1)c1c(O)c2ccccc2oc1=O (stereo not shown) [warfarin]
- change of skin-PAMPA log Pe after membrane treatment at basic pH [6]: slight increase at pH 9 and 10

Structure (SMILES): Oc1ccccc1O [Catechol]
- log Kp [3, 7]: -5.87 cm/s
- Papp at 4 h, 50 μM [4, 20]: 40.7 nm/s

Structure (SMILES): CCC1(CC)C(=O)NC(=O)NC1=O [5,5-Diethylbarbituric acid (Barbital), 5,5-Diethylbarbituric acid]
- Papp (in vitro): 17.8 nm/s
- log Kp ([3]; human): -7.29 cm/s

Structure (SMILES): CC(C(=O)O)c1ccc(-c2ccccc2)c(F)c1 (stereo not shown) [Flurbiprofen]
- log Po/w [1]: 4.16
- pKa [2]: 4.19 ^c
- log Kp [3, 7]: -4.72 cm/s
- Papp at 4 h, 50 μM [4, 8]: 2040 nm/s
- Papp at 30 min, 50 μM [4, 21]: 2880 nm/s
- Papp at 4 h, 50 μM [4, 10]: 1410 nm/s
- RM (membrane retention) [4, 12]: 0.18(±0.03)
- RM (membrane retention) [4, 13]: 0.00
- RM (membrane retention) [4, 14]: 0.00
- RM (membrane retention) [4, 15]: 0.13(±0.02)
- RM (membrane retention) [4, 16]: 0.00
- RM (membrane retention) [4, 17]: 0.00
- log Pe [4, 18]: -3.69±0.01 cm/s
- log Pe [4, 22]: -2.98(±0.13) cm/s

Structure (SMILES): Cc1cccc(O)c1 [3-Methylphenol (m-Cresol), 3-Methylphenol]
- Papp (in vitro; [18]): 468 nm/s
- log Kp [3, 7]: -4.89 cm/s

Structure (SMILES): Nc1ccccc1N [o-Phenylenediamine]
- log Kp [3, 7]: -6.70 cm/s
- log Pe [4, 18]: -5.42±0.02 cm/s
